The test system of assay [1] is Male Sprague Dawley rats. Nature of the assay: Barnes Maze test (momentum exchange impact model). It is filed as in vivo, rat. As to the method:
(§1) EXAMPLE. Momentum exchange impact model. This model features several advantageous translational differences over some head injury models, such as the controlled cortical impact injury model. For example, the head, neck and body can move with impact, and the velocity of head movement and energy transfer can be calculated and scaled mild to provide range from moderate to severe concussions. Studies are conducted with moderate impacts with neuroradiological evidence of contusions. Male rats are concussed twice with one day. Additional details are described in Viano et al., “Evaluation of three animal models for concussion and serious brain injury” Ann Biomed Eng. 40(1):213-26 (2012). […] Sham non-concussed test animals are given vehicle or test compound. Test animals are treated twice daily for 5 consecutive days. At two weeks post concussion cognitive behaviors are assessed, using for example, the Barnes maze and/or novel recognition models. In addition, motor behaviors are assessed, using for example, beam walk and/or rotarod tests. In each case, neuroradiological MRI is also performed.
(§2) Beginning on postnatal (P)70, animals are divided into 3 groups (n=6-7/group; Sham Control Group (Control, CG), Injury Group (IG), and Treatment Group (TG) and begin their head impact, and drug regimens. All groups are anaesthetized with 4% isoflurane in oxygen, and Injury group and Treatment group receive the first of two total head impacts) using a custom setup from Animal Imaging Research (AIR; Holden, Mass.) on P70. The day after the first impact (P71), test compound, such as AVN576, is administered to the Treatment group and the Sham Control group. In addition, a vehicle only control group (VCG) is administered saline. All administrations re administered to the Control and Treatment groups twice per day at 0700 and 1400 (IP @10 mg/kg). The drug regimen is continued over the following 4 days (5 days total). The second head impact is delivered two days following the first on P72. Two weeks post impact, animals are imaged and tested for cognitive and motor behaviors. In all evaluations made, there was not a significant difference between the sham control group (CG) receiving test compounds and vehicle-only sham control group (VCG) receiving vehicle.
EXAMPLE. Barnes Maze test results. This test assesses spatial learning and memory.

Assay [2] deals with Male Sprague Dawley rats. As to the kind of experiment: Novel Object Recognition test (momentum exchange impact model). It is filed as in vivo, rat. As to the method: as §1, §2
EXAMPLE. Novel Object Recognition test results. This test assesses episodic learning and memory-related stimulus recognition.

In assay [3] the test system is Male Sprague Dawley rats. As to the kind of experiment: Edema and ventricular volumes (T2 relaxometry MRI). It is filed as in vivo, rat. As to conditions: Treatment group; no significant difference to Control group. Here is the method: EXAMPLE. T2 Relaxometry measurement of edema. MRI was conducted 24-28 days after the injury to characterize edematous volume in the lateral ventricles using T2 relaxometry. The time of imaging was based on the rat model used for TBI assessment by Charles River. Images are acquired using a multi-slice multi-echo (MSME) pulse sequence. The echo time (TE) is illustratively 11 ms, and 16 echoes are acquired during imaging with a recovery time (TR) of 2500 ms. Images are acquired with a field of view [FOV] 3 cm^2, data matrix=256×256×20 slices, thickness=1 mm. Values for […] relaxation time (T2) are obtained from all the slices using ParaVison 5.1 software. T2 is used to characterize the edematous volume in the lateral ventricle. The T2 values are used for segmentation and quantification of the ventricle volume. The T2 values are computed using the equation; y=A+Cexp (−t/T2) (S.D. weighted) obtained from the Paravision 5.1 software, where, A=absolute bias, C=signal intensity, t=echo time and T2=spin-spin relaxation time. The ventricle is identified as a hyperintensity on the T2 map over three 1 mm sections. The volume is calculated using a snake region growth algorithm in itk-SNAP (www.itksnap.org). The threshold is illustratively set at 6300 to 9000 as absolute pixel intensity. A point is seeded within the ventricle and the algorithm run until segmentation is complete. […]

Another assay has as its target T1, human V1a receptor (Homo sapiens, UniProt P37288).
T1 construct: host or cells: CHO cells
Nature of the assay: Human vasopressin V1a receptor binding assay. Conditions: selectivity table; read-out: inhibition data Ki, V1a. The essentials:
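Whole CHO cells expressing human V1a incubated with 1 nM 3H-AVP and 10-fold compound dilutions in 25 mM Hepes, 0.25% BSA, DMEM pH 7.0 for 45 min at 37 °C. Nonspecific binding with 100 nM unlabelled AVP. Cells SDS-lysed, scintillation counted; IC50 by curve fitting.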

The test system of assay [4] is Male Sprague Dawley rats. As to the kind of experiment: Motor behavior (balance beam, rotarod). It is filed as in vivo, rat. As to the method: EXAMPLE. Momentum exchange impact model. This model features several advantageous translational differences over some head injury models, such as the controlled cortical impact injury model. For example, the head, neck and body can move with impact, and the velocity of head movement and energy transfer can be calculated and scaled mild to provide range from moderate to severe concussions. Studies are conducted with moderate impacts with neuroradiological evidence of contusions. Male rats are concussed twice with one day. Additional details are described in Viano et al., “Evaluation of three animal models for concussion and serious brain injury” Ann Biomed Eng. 40(1):213-26 (2012). […] Sham non-concussed test animals are given vehicle or test compound. Test animals are treated twice daily for 5 consecutive days. At two weeks post concussion cognitive behaviors are assessed, using for example, the Barnes maze and/or novel recognition models. In addition, motor behaviors are assessed, using for example, beam walk and/or rotarod tests. In each case, neuroradiological MRI is also performed. […]
In general terms: The rotarod test checks motor coordination on a turning rod.

T1 sequence (P37288 whole entry): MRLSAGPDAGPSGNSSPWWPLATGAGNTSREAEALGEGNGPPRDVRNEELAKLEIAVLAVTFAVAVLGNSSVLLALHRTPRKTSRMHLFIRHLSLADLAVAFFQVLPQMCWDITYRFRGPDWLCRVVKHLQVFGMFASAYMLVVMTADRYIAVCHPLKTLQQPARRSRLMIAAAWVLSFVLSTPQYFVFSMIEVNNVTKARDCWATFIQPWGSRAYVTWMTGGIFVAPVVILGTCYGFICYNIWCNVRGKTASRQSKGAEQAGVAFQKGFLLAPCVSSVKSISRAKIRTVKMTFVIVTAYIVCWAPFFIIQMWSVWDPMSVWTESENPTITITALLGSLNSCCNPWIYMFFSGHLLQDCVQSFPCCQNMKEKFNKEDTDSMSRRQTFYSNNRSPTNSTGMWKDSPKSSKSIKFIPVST

Usually Ki stands for a dissociation constant, usually derived from enzyme kinetics or from competition with a known ligand. For the compound `C[C@@H](NC(=O)[C@@H](CC(=O)N1CCC(N2CCCCC2)CC1)N1C(=O)[C@@H](N2C(=O)OC[C@@H]2c2ccccc2)[C@H]1/C=C/c1cccc(I)c1)c1ccccc1` [Example 266], in the assay on Male Sprague Dawley rats [1] (P=0.03), the “distance traveled before finding the goal box: Injury group relative to Treatment group” value is “significantly greater distance” and the “error duration (time exploring wrong holes): Injury group relative to Treatment group” value is given as “significantly more time exploring the wrong holes”. In addition, the “deficits in learning and memory, Barnes maze” value in the assay with Male Sprague Dawley rats [1] (Treatment group, did not differ from control group) was “did not show any deficits in learning and memory”. The “latency to find the goal box: Injury group relative to Treatment group” value in the assay on Male Sprague Dawley rats [1] (collapsed across acquisition days, P=0.04) was “longer latencies to find the goal box”. For the same compound, in the assay on Male Sprague Dawley rats [2] (Treatment group P=0.003), the “percentage of time with the novel object compared to the Injury group” value is listed as “significantly longer percentage of time”. Moreover, the “total time with the novel object compared to the Injury group” value in the assay on Male Sprague Dawley rats [2] (Treatment group P=0.02) is “significantly more total time”. The “exploration index (exploration instances) compared to the Injury group” value with Male Sprague Dawley rats [2] (Treatment group P=0.06) is on record as “only a trend towards significance”. The “time investigating the novel object (recognition index) compared to chance” value in the assay on Male Sprague Dawley rats [2] (Treatment group, t(5)=2.61, p<0.05, IP 10 mg/kg twice daily 5 days) is “significantly greater than a chance amount of time”. Moreover, the “volume of lateral ventricles at the level of impact” value in the assay on Male Sprague Dawley rats [3] is “ventricular volume returns to normal levels”. Moreover, the inhibitory constant (Ki) at human V1a receptor was determined as 1.1 nM. In addition, the “rotarod latency to fall” value in the assay with Male Sprague Dawley rats [4] (Treatment group, Injury group 69.8±5.5, Control group 105.4±7.6, P=0.2) turned out to be 84.0 ± 9.0 s. The “overall motor behavior, Control vs Treatment group” value in the assay with Male Sprague Dawley rats [4] (concussed rats, IP 10 mg/kg twice daily 5 days) is “not a significant difference in overall motor behavior”.

The values above are taken from US11628160B2, “Compositions and methods for treating brain injury” (Azevan Pharmaceuticals, Inc., priority 2017, dated 2023).
